Experiments:
human patients = conditions: humans; cited from earlier work
[1] = system: indomethacin-induced gastric irritation; assay: Rat model of indomethacin-induced gastric irritation; type: in vivo, Sprague-Dawley rats
Procedure: Forty-five Sprague-Dawley rats (8-9 weeks-old, 227.6±6.30 g) were divided in three groups (P1, P2 and P3; n=9 each) to receive orally 0.5 mL/rat of the test treatments. Two control groups were studied as well. […] 15 minutes after the administration of the treatment, all animals were challenged with an oral administration of indomethacin (12.5 mg/kg) and sacrificed 4 hours later. Gastric mucosal injury was examined at a macroscopical and microscopical level. Macroscopic lesions were evaluated with Image J software. Microscopically, submucosal edema and microvascular injury were scored in H&E-stained preparations (Hematoxylin&Eosin-stained preparations). Measurements were blinded and performed by two independent observers and an inter-observer mean was calculated.

Sucrose octasulfate-aluminum complex [sucralfate]
other adverse effects (xerostomia, nausea, vomiting, headache, urticaria, rashes), incidence in patients (human patients): 0-5% | microvascular injury evaluation (score, mean±SEM) ([1]; H&E-stained fundic sections, Placebo 1.53±0.077, significant vs Placebo): 0.94±0.123 | histological sections of the fundic stomach (findings) ([1]; microscopic evaluation, H&E-stained fundic sections): less severe lesions | percentage of hemorrhagic area related to the total gastric area (mean±SEM) ([1]; oral 0.5 mL/rat 15 min before oral indomethacin 12.5 mg/kg, sacrificed 4 hours later, Placebo 1.37±0.260%, p<0.05 vs Placebo): 0.41±0.154% | hemorrhagic area (mean±SEM) ([1]; oral 0.5 mL/rat 15 min before oral indomethacin 12.5 mg/kg, sacrificed 4 hours later, Placebo 13.05±2.700, p<0.05 vs Placebo): 4.28±1.495 mm^2
